Results as given in patent US7285678B2, “Purification of 2-nitro-4-methylsulphonylbenzoic acid” (Syngenta Limited, priority 2001, dated 2007).

Assay: Ames test
Format: cell-based

With `CS(=O)(=O)c1ccc(C(=O)C2C(=O)CCCC2=O)c([N+](=O)[O-])c1` [Mesotrione, 2-(4-methylsulfonyl-2-nitrobenzoyl)cyclohexane-1,3-dione] as the compound, how does the Ames test (Mesotrione made from NMSBA purified by Example 1 (one pot: filtration, activated carbon, hydrolysis at pH 13, crystallization)) read?
The Ames test was “negative”.

What about the Ames test response (Mesotrione made from NMSBA purified by Example 2, both fractions (with carbon and without carbon)) of the same compound?
Its Ames test response is “negative”.

And the Ames test (Mesotrione made from NMSBA purified by Example 3 (20, 30 and 40% solids loading))?
Its Ames test is “negative”.

What about the Ames test response (Mesotrione made from NMSBA purified by Example 4 double isolation, fractions (A) and (B)) of the same compound?
Its Ames test response is “negative”.

And the Ames test result (mesotrione made by the known process from NMSBA starting material containing impurities (not purified))?
The Ames test result was “positive”.
